Measurements: PMC10721329, “Quisinostat is a brain-penetrant radiosensitizer in glioblastoma” (JCI Insight, 2023)
“And” between values parts separate entries of the source, which are not always exact repeats. Identical values can stand only once.

Key:
[1] = Body weight / tolerability in non-tumor-bearing mice; assay type: in vivo, athymic nude mice; details: for weight of normal nude mice during QST treatment: QST 10 mg/kg, individual mice
GB126 cells = experiment: QST + IR sulforhodamine B cytotoxicity assay; assay type: cell-based, human; details: replicates
Method: (§1) There is preclinical evidence that HDACis may be effective in enhancing the sensitivity of tumor cells to IR therapy ([24], [28]–[31]). We hypothesized that the accumulation of DNA damage induced by QST, in combination with IR, may synergistically reduce GSC viability. To examine this hypothesis, we treated 2 cell lines (BT145 and GB126) with increasing nanomolar doses of QST (10–1000 nM) and increasing doses of IR (2–4 Gy) (Figure 4, A and B). […] We then analyzed our combinatorial dose-response cell viability data using SynergyFinder, an application that assigns synergy scores using various major reference models ([32]).
(§2) GSCs were seeded in laminin-coated tissue culture–treated 96-well plates (clear bottom, white plate; Corning) at a density of 1000–5000 cells per well (cell line dependent) in GSC media. U87-MG were seeded using their normal growth conditions without laminin (10% bovine calf serum in DMEM). All cells were incubated at 37°C and allowed to adhere overnight. The next day, cells were treated with incremental concentrations of QST (Selleckchem; 0, 10, 25, 50, 100, 250, 500, and 1000 nM) diluted in media. Cells treated without QST were treated with DMSO diluted in media. Following treatment with QST, cells were grown for 3 to 5 days (cell line dependent), and cell viability was measured and quantified. All cell viability measurements were performed using the CellTiter-Glo luminescent cell viability assay (Promega) following the manufacturer’s instructions. For the sulforhodamine B colorimetric assay for cytotoxicity, the protocol was performed as described elsewhere ([33]). All cell viability results represent the mean of at least 3 biological replicates, each containing 3 technical replicates.

BT145 cells = experiment: QST + IR sulforhodamine B cytotoxicity assay; assay type: cell-based, human; details: replicates
Method: as §1, §2

[2] = Body weight / tolerability in flank tumor study; assay type: in vivo; parameters: weight of flank tumor mice: unit not given here; details: for weight of flank tumor mice: individual mice
Method: We next examined whether QST treatment alone or in combination with IR would be effective in slowing tumor growth in a flank model of GBM (U87). Tumor-bearing mice receiving IR were treated with 2-Gy fractions on Monday, Wednesday, and Friday (MWF) 2 hours after dosing with either vehicle solution or QST (10 mg/kg), for a total dose of 6 Gy. Following completion of IR, mice continued to receive vehicle or QST until the tumors reached the maximum volume threshold (Figure 5C). […] The mean tumor volume in mice with combination treatment was approximately 4.5-fold less than that in vehicle-treated mice at study completion (Figure 5D). […]
treated with 2 Gy of ionizing radiation on MWF for a total 6 Gy (3 doses). Ionizing radiation was administered with the RS2000 series biological research irradiator (Rad Source Technologies).
Treatment of Flank-Implanted Mice with QST and/or Radiation
Implanted flank tumors were allowed to grow until the tumor size reached 100 mm3 volume. Mice were randomized into groups before treatment and underwent treatment on MWF for the entire duration of the experiment until the tumor volumes exceeded 2000 mm3. Treatment groups included vehicle (50% PEG-300), QST alone (10 mg/kg), flank IR treatment with vehicle (2 Gy), and flank IR treatment (2 Gy) with QST (10 mg/kg). For mice receiving IR treatment with or without QST, mice were treated with 2 Gy on MWF for a total 6 Gy during the first week of treatment. QST was administered to mice through intraperitoneal injections 2 hours before flank tumor radiation treatment. Upon completion of the radiation regimen, IR-treated mice subsequently received QST or vehicle alone for the rest of the experiment. Tumor growth and treatment response were monitored by manually measuring the tumor area twice per week starting at 13 days after implantation. Upon reaching the tumor volume threshold (2000 mm3), mice were sacrificed, and plasma and tissue samples were harvested for PD and PK analyses 2 hours after treatment with a final dose of QST (10 mg/kg). […]

[3] = Quisinostat log[nm] 1, 0 Gy, control 0 Gy = 1
[4] = Quisinostat log[nm] 1.39794, 0 Gy
[5] = Quisinostat log[nm] 1.39794, 2 Gy
[6] = Quisinostat log[nm] 1.39794, 4 Gy
[7] = Quisinostat log[nm] 1.69897, 0 Gy
[8] = Quisinostat log[nm] 1.69897, 2 Gy
[9] = Quisinostat log[nm] 1.69897, 4 Gy

Cn1cc(CNCC2CCN(c3ncc(C(=O)NO)cn3)CC2)c2ccccc21 [QST, quisinostat]
tolerability (weight loss) ([1]; 10 mg/kg IP MWF for 2 weeks, non-tumor-bearing athymic nude mice): well tolerated
weight of normal nude mice during QST treatment ([1]; treatment day 1): 28.1 g (2×) and 28.4 g and 26.7 g and 26.2 g and 20.2 g
weight of normal nude mice during QST treatment ([1]; treatment day 2): 27.9 g and 27.4 g and 26 g and 26.7 g and 20.4 g and 27.5 g
weight of normal nude mice during QST treatment ([1]; treatment day 3): 27.4 g and 27.9 g and 25.6 g and 27.2 g and 20.3 g and 27.8 g
weight of normal nude mice during QST treatment ([1]; treatment day 4): 28.1 g and 27.7 g and 25.7 g and 27 g (2×) and 20.8 g
weight of normal nude mice during QST treatment ([1]; treatment day 5): 27.5 g and 27.4 g and 26.5 g and 27.1 g (2×) and 20.3 g
weight of normal nude mice during QST treatment ([1]; treatment day 6): 27.4 g and 27 g and 26.9 g and 27.2 g and 20.2 g and 27.1 g
SRB assay, relative signal (GB126 cells; [3]): 0.6958 and 0.7271 and 0.697
SRB assay, relative signal (GB126 cells; Quisinostat log[nm] 1, 2 Gy): 0.4678 and 0.5322 and 0.5047
SRB assay, relative signal (GB126 cells; Quisinostat log[nm] 1, 4 Gy): 0.3918 and 0.337 and 0.3993
SRB assay, relative signal (GB126 cells; [4]): 0.6332 and 0.6836 and 0.5963
SRB assay, relative signal (GB126 cells; [5]): 0.4122 and 0.4783 and 0.4726
SRB assay, relative signal (GB126 cells; [6]): 0.3723 and 0.2821 and 0.3826
SRB assay, relative signal (GB126 cells; [7]): 0.574 and 0.5854 and 0.5737
SRB assay, relative signal (GB126 cells; [8]): 0.3752 and 0.4419 and 0.4352
SRB assay, relative signal (GB126 cells; [9]): 0.3383 and 0.2983 and 0.3763
SRB assay, relative signal (GB126 cells; Quisinostat log[nm] 2, 0 Gy): 0.4806 and 0.4569 and 0.5515
SRB assay, relative signal (GB126 cells; Quisinostat log[nm] 2, 2 Gy): 0.3411 and 0.3753 and 0.4318
SRB assay, relative signal (GB126 cells; Quisinostat log[nm] 2, 4 Gy): 0.3084 and 0.2397 and 0.3383
SRB assay, relative signal (BT145 cells; [3]): 0.6967 and 0.6385 and 0.6781
SRB assay, relative signal (BT145 cells; Quisinostat log[nm] 1, 2 Gy): 0.3422 and 0.2636 and 0.3938
SRB assay, relative signal (BT145 cells; Quisinostat log[nm] 1, 4 Gy): 0.2576 and 0.2273 and 0.1797
SRB assay, relative signal (BT145 cells; [4]): 0.5611 and 0.5715 and 0.6072
SRB assay, relative signal (BT145 cells; [5]): 0.3016 and 0.237 and 0.3379
SRB assay, relative signal (BT145 cells; [6]): 0.251 and 0.1999 and 0.186
SRB assay, relative signal (BT145 cells; [7]): 0.3909 and 0.4995 and 0.4801
SRB assay, relative signal (BT145 cells; [8]): 0.2862 and 0.2318 and 0.3442
SRB assay, relative signal (BT145 cells; [9]): 0.2294 and 0.2058 and 0.1789
SRB assay, relative signal (BT145 cells; Quisinostat log[nm] 2, 0 Gy): 0.4525 and 0.4659 and 0.3488
SRB assay, relative signal (BT145 cells; Quisinostat log[nm] 2, 2 Gy): 0.304 and 0.2255 and 0.2864
SRB assay, relative signal (BT145 cells; Quisinostat log[nm] 2, 4 Gy): 0.2104 and 0.1978 and 0.1926
tolerability (mean weights) ([2]; 10 mg/kg IP MWF, alone and in combination with IR, flank tumor study): well tolerated
weight of flank tumor mice ([2]; day 13 post-injection): 29.8
weight of flank tumor mice ([2]; day 22 post-injection): 29.9 (2×) and 27.3 and 29.1 and 26 (2×) and 31.1 and 29.8 and 28 and 28.9
